# Test results as given in PMC9229165, “In Vitro Anticancer Activity Screening of Novel Fused Thiophene Derivatives as VEGFR-2/AKT Dual Inhibitors and Apoptosis Inducers” (Pharmaceuticals, 2022).
# “And” between values parts separate entries of the source, which are not always exact repeats. Equal entries are not always repeated. Where two headings read alike, the source gives them in different places.
# Experiments:
# HepG2 cells [1] = assay: MTT antiproliferative assay on HepG2; type: cell-based; conditions: mean ± S.D. (n = 3), read-out: Cytotoxicity in IC50, HepG2
# Protocol: (§1) The antiproliferative activity of the thiophene compounds 3a–g, 4a–c, 6a, and 7a–d was evaluated by an in vitro MTT colorimetric assay on two oncogenic cell lines: liver (HepG2) and prostate (PC-3).
# (§2) All cell lines (HepG2, PC-3, and nontumorigenic WI38) were supplied from VACSERA (Cairo, Egypt), cultured in DMEM (Invitrogen/Life Technologies, Waltham, MA, USA) at a density of 1.2–1.8 × 10,000 cells/well in a volume of 100 µL of the growth medium, and then incubated for 24 h, and an MTT assay was done as reported by.
# PC-3 cells = assay: MTT antiproliferative assay on PC-3; type: cell-based; conditions: Homo sapiens, PC-3, MTT assay; mean ± S.D. (n = 3); read-out: Cytotoxicity in IC50, PC-3
# Protocol: as §1, §2
# [2] = MTT assay on normal nononcogenic cell line WI38; type: cell-based; conditions: human, WI38 cells (normal nononcogenic cell line); MTT assay; noncancerous cell line; mean ± S.D. (n = 3); read-out: Cytotoxicity in IC50, WI38
# Protocol: (§3) The aforementioned results illustrate that compounds 3b and 4c are the most promising cytotoxic agents on both cell lines and will be subjected to a thorough mechanistic study to understand their anticancer activity. However, before doing this, their selective toxicity and, thus, their safety were evaluated by measuring the IC50 values against the normal nononcogenic cell line (Wl38) by an MTT assay as listed in Table 1. […] Compound 3b gave SI of 6, and compound 4c gave SI = 12 showing better selectivity toward cancer cells than doxorubicin with SI = 5.
# as §2
# WI38 cells = assay: MTT assay on normal nononcogenic cell line WI38; type: cell-based; conditions: calculated by dividing the IC50 of WI38/PC-3; SI > 2 is considered safe
# Protocol: as §3, §2
# VEGFR-2 [3] = molecular target: T1, VEGFR-2 (Homo sapiens, UniProt P35968); assay: VEGFR-2 phosphorylation cell-based ELISA in HepG2 cells; conditions: compounds at their formerly determined IC50
# T1 sequence (P35968 20-1356): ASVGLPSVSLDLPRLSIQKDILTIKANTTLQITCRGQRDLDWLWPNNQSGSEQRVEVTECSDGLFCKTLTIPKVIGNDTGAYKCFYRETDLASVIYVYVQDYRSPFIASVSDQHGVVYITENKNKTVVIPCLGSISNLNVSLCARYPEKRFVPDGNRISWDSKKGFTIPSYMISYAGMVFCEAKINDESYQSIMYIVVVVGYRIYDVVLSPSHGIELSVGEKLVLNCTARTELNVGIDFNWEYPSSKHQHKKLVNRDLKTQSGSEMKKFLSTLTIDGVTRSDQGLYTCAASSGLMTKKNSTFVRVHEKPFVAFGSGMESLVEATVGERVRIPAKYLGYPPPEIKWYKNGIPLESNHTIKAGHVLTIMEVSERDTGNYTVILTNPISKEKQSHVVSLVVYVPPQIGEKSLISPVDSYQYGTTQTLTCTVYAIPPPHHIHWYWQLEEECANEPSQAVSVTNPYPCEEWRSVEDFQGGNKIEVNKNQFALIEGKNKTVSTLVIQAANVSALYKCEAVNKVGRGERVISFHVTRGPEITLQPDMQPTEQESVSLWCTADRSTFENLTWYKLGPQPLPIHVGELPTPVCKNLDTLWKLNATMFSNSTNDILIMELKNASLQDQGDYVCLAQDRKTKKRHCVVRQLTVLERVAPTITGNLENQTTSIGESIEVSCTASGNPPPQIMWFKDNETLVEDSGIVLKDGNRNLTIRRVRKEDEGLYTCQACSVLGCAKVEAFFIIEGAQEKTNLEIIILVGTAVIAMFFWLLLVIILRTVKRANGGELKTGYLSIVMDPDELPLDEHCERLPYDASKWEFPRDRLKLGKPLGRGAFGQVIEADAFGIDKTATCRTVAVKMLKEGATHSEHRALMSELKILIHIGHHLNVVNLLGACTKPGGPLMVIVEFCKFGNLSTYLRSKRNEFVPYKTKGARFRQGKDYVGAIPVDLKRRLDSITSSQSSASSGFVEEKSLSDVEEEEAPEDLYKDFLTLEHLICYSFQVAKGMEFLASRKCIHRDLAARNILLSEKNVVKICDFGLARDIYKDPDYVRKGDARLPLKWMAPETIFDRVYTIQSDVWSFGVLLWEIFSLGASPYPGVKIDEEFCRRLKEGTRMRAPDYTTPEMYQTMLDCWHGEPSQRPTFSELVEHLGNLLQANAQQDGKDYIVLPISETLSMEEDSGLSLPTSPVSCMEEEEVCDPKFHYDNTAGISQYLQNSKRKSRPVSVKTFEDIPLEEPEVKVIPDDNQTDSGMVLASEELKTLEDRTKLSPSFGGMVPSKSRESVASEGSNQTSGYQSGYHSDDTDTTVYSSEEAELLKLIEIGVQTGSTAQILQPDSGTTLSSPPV
# Protocol: VEGFR-2 phosphorylation was assayed using VEGFR2 Antibody (Phospho-Tyr951) (OAEC00085, AVIVA SYSTEM BIOLOGY) [53], while Akt-1 was assayed by Mouse/Human/Rat Phospho-AKT1 (Ser473) (Cell-Based Phosphorylation ELISA) ELISA Kit-LS-F1447 (LSBio) according to manufacturer’s instructions [54].
# AKT-1 [4] = molecular target: T2, AKT-1 (Homo sapiens, UniProt P31749); assay: Akt kinase activity assay kit on cell lysate; type: biochemical; conditions: LY2780301 as reference
# T2 sequence (P31749 whole entry): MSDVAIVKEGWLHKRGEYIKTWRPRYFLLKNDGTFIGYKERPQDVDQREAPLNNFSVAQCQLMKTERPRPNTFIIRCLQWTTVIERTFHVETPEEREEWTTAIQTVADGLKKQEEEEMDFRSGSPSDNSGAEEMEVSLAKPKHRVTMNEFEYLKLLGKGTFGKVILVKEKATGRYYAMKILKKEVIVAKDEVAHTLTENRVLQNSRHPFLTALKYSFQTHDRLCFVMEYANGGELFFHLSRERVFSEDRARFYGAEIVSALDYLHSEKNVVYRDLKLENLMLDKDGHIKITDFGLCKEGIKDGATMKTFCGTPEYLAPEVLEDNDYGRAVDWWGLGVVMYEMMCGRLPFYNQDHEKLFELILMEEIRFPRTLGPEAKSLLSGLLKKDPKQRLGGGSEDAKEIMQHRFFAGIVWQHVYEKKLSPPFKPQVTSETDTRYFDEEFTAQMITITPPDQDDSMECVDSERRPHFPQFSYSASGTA
# Source text: (§5) The outcomes were expressed as IC50 values (mean standard deviation) calculated from the dose–response curves and their linear regression equations.
# HepG2 cells [5] = assay: Flow cytometric cell cycle analysis; type: cell-based; conditions: HepG2, 48 h, at IC50
# Protocol: AKT-1 is known for its downstream activation of several proteins involved in cell proliferation and apoptosis evasion. In addition, it is reported to be involved in G1–S checkpoint transition and proliferation.
# (§4) Analyzing the DNA content in the cell cycle phases by flow cytometry was conducted using FACSCalibur (Becton Dickinson, Franklin Lakes, NJ, USA) following the manufacturer’s manual. The cell cycle analysis procedures were as reported by on HepG2 cells after their treatment with the most promising derivatives for 48 h. Further assessment of the proapoptotic effect was determined by the Annexin V-FITC/PI apoptosis detection kit (Catalog # K101-25, BD Biosciences, San Diego, CA, USA).
# HepG2 cells [6] = assay: Annexin V-FITC/PI apoptosis detection; type: cell-based; conditions: HepG2, 48 h
# Protocol: Annexin V/PI staining with flow cytometric analysis was adapted to measure early and late apoptotic cells and necrotic cells as presented in Table 3 and Figure 6.
# as §4
# caspase-3 = assay: Active caspase-3 ELISA in HepG2 cells; type: cell-based, human
# Protocol: Apoptosis is known to be carried out through three different pathways: intrinsic, extrinsic, and granzyme pathways. One of the controlling proteins in apoptosis is the cysteine protease named caspase with the chief executer caspase 3 [46, 47]. Accordingly, assessing the effect of 3b and 4c on the active caspase-3 level was done in HepG2 cells taking doxorubicin as the reference drug.
# The colorimetric ELISA assay for active caspase-3 detection was carried out utilizing Invitrogen™ Caspase-3 (Cleaved) Human ELISA-Kit (KHO1091, CA, USA) according to the manufacturer’s procedures. ROBONIK P2000 ELISA reader was used at 450 nm, and the standard curve was obtained by plotting the mean absorbance of each standard concentration against human caspase-3 concentrations.
# VEGFR-2 [7] = molecular target: T1, VEGFR-2; assay: VEGFR2 (KDR) kinase assay kit; type: biochemical; design: purchased BPS Bioscience 40325; conditions: read-out: VEGFR-2 kinase inhibitory activity IC50
# Source text: as §5
# AKT-1 [8] = molecular target: T2, AKT-1; assay: Phospho-AKT1 (Ser473) cell-based phosphorylation ELISA in HepG2 cells; design: endogenous in cells; host or cells: HepG2
# Protocol: To investigate the success of the design strategy developed in this work, the effect of the promising candidates 3b and 4c was assessed on AKT-1, a crucial protein, by determining their phosphorylation inhibition rate in HepG2 cells and measuring their biochemical kinase inhibitory activity.
# VEGFR-2 phosphorylation was assayed using VEGFR2 Antibody (Phospho-Tyr951) (OAEC00085, AVIVA SYSTEM BIOLOGY), while Akt-1 was assayed by Mouse/Human/Rat Phospho-AKT1 (Ser473) (Cell-Based Phosphorylation ELISA) ELISA Kit-LS-F1447 (LSBio) according to manufacturer’s instructions.
# lung, ovarian, CNS cells = test system: lung, ovarian, CNS cells; design: method as in PMID 28759878; conditions: read-out: IC50 range in lung, ovarian, CNS cells; cited from earlier work
# FAK = test system: FAK; design: method as in PMID 20050669, PMID 31923858; conditions: cited from earlier work
# PC3 cells = test system: PC3 cells; design: method as in PMID 33328104; conditions: cited from earlier work
# HUVEC cells = test system: HUVEC cells; design: method as in PMID 33328104; conditions: cited from earlier work
compound,measurement,setting,value
"CN1CCc2sc3nc(-c4ccc(Cl)cc4)[nH]c(=O)c3c21 [3b, 2-(4-Chlorophenyl)-5-methyl-3,5,6,7-tetrahydro-4H-pyrrolo[2′,3′:4,5]thieno[2,3-d]pyrimidin-4-one]",IC50,"HepG2 cells [1]; Homo sapiens, HepG2, MTT assay",3.1 µM
same,IC50,HepG2 cells [1]; MTT assay,3.11 ± 0.14 µM
same,IC50,PC-3 cells,2.15 ± 0.12 µM
same,IC50,[2],12.5 ± 0.68 µM
same,Selectivity Index (SI),WI38 cells,6 and 5.79
same,VEGFR-2 phosphorylation inhibition,VEGFR-2 [3],58.3%
same,IC50,AKT-1 [4],6.96 µM
same,"% Content of DNA, G0:G1",HepG2 cells [5],39.42%
same,"% Content of DNA, G2:M",HepG2 cells [5],4.39%
same,"% Content of DNA, PreG1",HepG2 cells [5],42.06%
same,"% Content of DNA, S",HepG2 cells [5],56.19%
same,Cell cycle comment (phase of arrest),HepG2 cells [5],cell growth arrest@ S
same,Increase in early apoptotic cells over untreated cells,HepG2 cells [6],5 fold
same,Increase in late apoptotic cells over untreated cells,HepG2 cells [6],144 fold
same,"Apoptosis, Total (cells percentage)",HepG2 cells [6]; at IC50,42.06%
same,"Apoptosis, Early (cells percentage)","HepG2 cells [6]; at IC50, Q2 in Figure 6",2.51%
same,"Apoptosis, Late (cells percentage)","HepG2 cells [6]; at IC50, Q3 in Figure 6",24.53%
same,Necrosis (cells percentage),"HepG2 cells [6]; at IC50, Q4 in Figure 6",15.02%
same,Increase in active caspase-3 level over the untreated cells,caspase-3,five-fold
same,melting point,,168 °C
same,IC50,VEGFR-2 [7],0.126 µM
same,AKT-1 phosphorylation inhibition rate,AKT-1 [8],63%
COc1ccc(-c2nc3sc4c(c3c(=O)[nH]2)CCCC4)cc1 [III],IC50,"lung, ovarian, CNS cells",0.6 to 1.2 µM
COc1ccccc1-c1csc2cnc(Nc3ccc(C(=O)NC4CCNCC4)c(F)c3)nc12 [II],IC50,FAK,0.0282 µM
O=C(Nc1ccc(Cl)c(Cl)c1)Nc1nnc(Sc2ncnc3scc(-c4ccncc4)c23)s1 [V],Pro-apoptotic effect in PC3 cells,PC3 cells,44%
same,Pro-apoptotic effect in HUVEC cells,HUVEC cells,28.45%
